Experimental data as given in ChEMBL document CHEMBL6109105, “Design, synthesis and antibacterial evaluation of oxazolidinone derivatives containing N-methylglycyl or quaternary ammonium salts” (Bioorg Med Chem, 2025).
Converted amounts (≈) assume the structure as drawn. The source made the active and inactive calls. The rule behind the calls is not given here.

Legend:
Staphylococcus aureus [1] = experiment: Antibacterial activity against Staphylococcus aureus ATCC 29213 assessed as inhibition of bacterial growth incubated for 16 to 18 hrs by microbroth dilution method; assay type: functional; conditions: time 16-18 hrs, read-out: MIC100
Enterococcus faecalis [2] = experiment: Antibacterial activity against Enterococcus faecalis ATCC 29212 assessed as inhibition of bacterial growth incubated for 16 to 18 hrs by microbroth dilution method; assay type: functional; conditions: time 16-18 hrs, read-out: MIC100
Escherichia coli = experiment: Antibacterial activity against Escherichia coli ATCC 25922 assessed as inhibition of bacterial growth incubated for 16 to 18 hrs by microbroth dilution method; assay type: functional; conditions: time 16-18 hrs, read-out: MIC100
[3] = test system: Stenotrophomonas maltophilia; experiment: Antibacterial activity against Stenotrophomonas maltophilia ATCC 17808 assessed as inhibition of bacterial growth incubated for 16 to 18 hrs by microbroth dilution method; assay type: functional; conditions: time 16-18 hrs, read-out: MIC100
[4] = Hemolytic activity in sheep RBC assessed as hemolysis incubated for 1 hrs by microplate reader analysis; assay type: toxicity, cell-based, Ovis aries, Erythrocyte; conditions: sheep red blood cells
Staphylococcus aureus [5] = experiment: Antibacterial activity against methicillin-resistant Staphylococcus aureus; assay type: functional
Staphylococcus aureus [6] = experiment: Antibacterial activity against methicillin-sensitive Staphylococcus aureus; assay type: functional
Streptococcus pneumoniae = experiment: Antibacterial activity against penicillin-resistant Streptococcus pneumoniae; assay type: functional
Enterococcus [7] = experiment: Antibacterial activity against vancomycin-resistant enterococcus; assay type: functional
Enterococcus faecalis [8] = experiment: Antibacterial activity against Enterococcus faecalis assessed as inhibition of bacterial growth incubated for 3 hrs in presence of 50% plasma by dilution method; assay type: functional
[9] = Selectivity ratio of MIC for antibacterial activity against Enterococcus faecalis assessed as inhibition of bacterial growth measured immediately in presence of 50% plasma to MIC for antibacterial activity against Enterococcus faecalis assessed as inhibition of bacterial growth assessed as inhibition of bacterial growth measured after 16 to 18 hrs; assay type: functional
[10] = Selectivity ratio of MIC for antibacterial activity against Enterococcus faecalis assessed as inhibition of bacterial growth measured after 3 hrs in presence of 50% plasma to MIC for antibacterial activity against Enterococcus faecalis assessed as inhibition of bacterial growth assessed as inhibition of bacterial growth measured after 16 to 18 hrs; assay type: functional
Cell membrane = experiment: Induction of cytoplasmic membrane permeability in Enterococcus faecalis assessed as increase in fluorescence intensity at 8 times of MIC by PI staining based analysis
[11] = Cytotoxicity against human HeLa cells assessed as cell viability at 64 microg/ml incubated for 24 hrs by CCK8 assay relative to control; assay type: toxicity, cell-based; conditions: at 64 µg/mL, read-out: Activity
HeLa = experiment: Cytotoxicity against human HeLa cells assessed as increase in red fluorescence at 32 microg/ml incubated for 24 hrs by calcein-AM/PI staining based fluorescence microscopic analysis; assay type: toxicity, cell-based; conditions: dose 32 µg/ml
Staphylococcus aureus [12] = experiment: Antibacterial activity against Staphylococcus aureus ATCC 29213 assessed as inhibition of bacterial growth by CLSI protocol based broth liquid microdilution method; assay type: functional
Staphylococcus aureus [13] = experiment: Antibacterial activity against methicillin-resistant Staphylococcus aureus assessed as inhibition of bacterial growth by CLSI protocol based broth liquid microdilution method; assay type: functional
Enterococcus [14] = experiment: Antibacterial activity against vancomycin-resistant enterococcus assessed as inhibition of bacterial growth by CLSI protocol based broth liquid microdilution method; assay type: functional

SMILES | MIC (Staphylococcus aureus [1]) | MIC (Enterococcus faecalis [2]) | MIC (Escherichia coli) | MIC [3] | HC50 at 1 h [4] | also measured
CC(=O)NC[C@H]1CN(c2ccc(N3CCN(C(=O)CN(C)Cc4ccc(C)cc4)CC3)c(F)c2)C(=O)O1 | 16 µg/mL (≈ 31.3 µM) | 2 µg/mL (≈ 3.91 µM) | > 128 µg/mL | > 128 µg/mL | > 1280 µg/mL | –
C[C@@H](O)[C@H]1C(=O)N2C(C(=O)O)=C(S[C@@H]3CN[C@H](C(=O)N(C)C)C3)[C@H](C)[C@H]12 [MEROPENEM] | – | – | 0.031 µg/mL (≈ 0.0808 µM) | 0.031 µg/mL (≈ 0.0808 µM) | – | –
CCC[N+](C)(C)CC(=O)N1CCN(c2ccc(N3C[C@H](CNC(C)=O)OC3=O)cc2F)CC1.[Br-] | 64 µg/mL | 64 µg/mL | > 128 µg/mL | > 128 µg/mL | > 1280 µg/mL | –
CC(=O)NC[C@H]1CN(c2ccc(N3CCN(C(=O)CN(C)Cc4cccc(Cl)c4)CC3)c(F)c2)C(=O)O1 | 8 µg/mL (≈ 15 µM) | 2 µg/mL (≈ 3.76 µM) | > 128 µg/mL | > 128 µg/mL | > 1280 µg/mL | –
CC(=O)NC[C@H]1CN(c2ccc(N3CCN(C(=O)CN(C)Cc4ccc(C(F)(F)F)cc4)CC3)c(F)c2)C(=O)O1 | 16 µg/mL (≈ 28.3 µM) | 2 µg/mL (≈ 3.54 µM) | > 128 µg/mL | > 128 µg/mL | > 1280 µg/mL | –
CC(=O)NC[C@H]1CN(c2ccc(N3CCN(Cc4ccc([N+](=O)[O-])o4)CC3)c(F)c2)C(=O)O1 [RANBEZOLID] | – | – | – | – | – | MIC (Staphylococcus aureus [5]): 0.06 µg/mL (≈ 0.13 µM); MIC (Staphylococcus aureus [6]): 0.06 µg/mL (≈ 0.13 µM); MIC (Streptococcus pneumoniae): 0.06 µg/mL (≈ 0.13 µM); MIC (Enterococcus [7]): 0.06 µg/mL (≈ 0.13 µM)
CC[C@H](C)[C@H](NC(=O)CN)C(=O)NCC(=O)N[C@@H](C)C(=O)N[C@H](C(=O)N[C@@H](CC(C)C)C(=O)N[C@@H](CCCCN)C(=O)N[C@H](C(=O)N[C@@H](CC(C)C)C(=O)N[C@H](C(=O)N[C@H](C(=O)NCC(=O)N[C@@H](CC(C)C)C(=O)N1CCC[C@H]1C(=O)N[C@@H](C)C(=O)N[C@@H](CC(C)C)C(=O)N[C@H](C(=O)N[C@@H](CO)C(=O)N[C@@H](Cc1c[nH]c2ccccc12)C(=O)N[C@H](C(=O)N[C@@H](CCCCN)C(=O)N[C@@H](CCCNC(=N)N)C(=O)N[C@@H](CCCCN)C(=O)N[C@@H](CCCNC(=N)N)C(=O)N[C@@H](CCC(N)=O)C(=O)N[C@@H](CCC(N)=O)C(N)=O)[C@@H](C)CC)[C@@H](C)CC)[C@@H](C)O)[C@@H](C)O)C(C)C)C(C)C [MELITTIN] | – | – | – | – | – | MIC (Enterococcus faecalis [8]): 32 µg/mL; Selectivity ratio [9]: >16; Selectivity ratio [10]: >16; Activity (Cell membrane): Active; viability at 24 h, 64 microg/ml [11]: 5.2%; Activity (HeLa): Toxic
CC(=O)NC[C@H]1CN(c2ccc(N3CCN(C(=O)C[N+](C)(C)Cc4ccccc4)CC3)c(F)c2)C(=O)O1.[Br-] | 128 µg/mL | 4 µg/mL | > 128 µg/mL | > 128 µg/mL | > 1280 µg/mL | –
CC(=O)NC[C@H]1CN(c2ccc(N3CCN(C(=O)CN(C)Cc4cccc([N+](=O)[O-])c4)CC3)c(F)c2)C(=O)O1 | 8 µg/mL (≈ 14.7 µM) | 2 µg/mL (≈ 3.69 µM) | > 128 µg/mL | > 128 µg/mL | > 1280 µg/mL | –
CC(=O)NC[C@H]1CN(c2ccc(N3CCN(/N=C\c4ccc([N+](=O)[O-])o4)CC3)c(F)c2)C(=O)O1 | – | – | – | – | – | MIC (Staphylococcus aureus [12]): 0.25 µg/mL (≈ 0.527 µM); MIC (Staphylococcus aureus [13]): 1 µg/mL (≈ 2.11 µM); MIC (Enterococcus [14]): 1 µg/mL (≈ 2.11 µM)
CC(=O)NC[C@H]1CN(c2ccc(N3CCN(C(=O)CN(C)Cc4ccccc4)CC3)c(F)c2)C(=O)O1 | 16 µg/mL (≈ 32.2 µM) | 4 µg/mL (≈ 8.04 µM) | > 128 µg/mL | > 128 µg/mL | > 1280 µg/mL | –
CC(=O)NC[C@H]1CN(c2ccc(N3CCN(C(=O)CN(C)Cc4cccc(C)c4)CC3)c(F)c2)C(=O)O1 | 16 µg/mL (≈ 31.3 µM) | 4 µg/mL (≈ 7.82 µM) | > 128 µg/mL | > 128 µg/mL | > 1280 µg/mL | –
Br.CC(=O)NC[C@H]1CN(c2ccc(N3CCN(C(=O)C[N+](C)(C)Cc4ccc([N+](=O)[O-])cc4)CC3)c(F)c2)C(=O)O1 | 128 µg/mL | 128 µg/mL | > 128 µg/mL | > 128 µg/mL | > 1280 µg/mL | –
COc1ccccc1CN(C)CC(=O)N1CCN(c2ccc(N3C[C@H](CNC(C)=O)OC3=O)cc2F)CC1 | 16 µg/mL (≈ 30.3 µM) | 2 µg/mL (≈ 3.79 µM) | > 128 µg/mL | > 128 µg/mL | > 1280 µg/mL | –
CC(=O)NC[C@H]1CN(c2ccc(N3CCN(C(=O)CN(C)Cc4ccc(Cl)cc4)CC3)c(F)c2)C(=O)O1 | 16 µg/mL (≈ 30.1 µM) | 2 µg/mL (≈ 3.76 µM) | > 128 µg/mL | > 128 µg/mL | > 1280 µg/mL | –
CN[C@H](CC(C)C)C(=O)N[C@H]1C(=O)N[C@@H](CC(N)=O)C(=O)N[C@H]2C(=O)N[C@H]3C(=O)N[C@H](C(=O)N[C@H](C(=O)O)c4cc(O)cc(O)c4-c4cc3ccc4O)[C@H](O)c3ccc(c(Cl)c3)Oc3cc2cc(c3O[C@@H]2O[C@H](CO)[C@@H](O)[C@H](O)[C@H]2O[C@H]2C[C@](C)(N)[C@H](O)[C@H](C)O2)Oc2ccc(cc2Cl)[C@H]1O [VANCOMYCIN] | – | 1 µg/mL (≈ 0.69 µM) | – | – | – | –
CC(=O)NC[C@H]1CN(c2ccc(N3CCN(C(=O)C[N+](C)(C)Cc4ccc(C(F)(F)F)cc4)CC3)c(F)c2)C(=O)O1.[Br-] | 128 µg/mL | 128 µg/mL | > 128 µg/mL | > 128 µg/mL | > 1280 µg/mL | –
CC(=O)NC[C@H]1CN(c2ccc(N3CCN(C(=O)CN(C)Cc4cccc(Br)c4)CC3)c(F)c2)C(=O)O1 | 8 µg/mL (≈ 13.9 µM) | 4 µg/mL (≈ 6.94 µM) | > 128 µg/mL | > 128 µg/mL | > 1280 µg/mL | –
CC(=O)NC[C@H]1CN(c2ccc(N3CCN(C(=O)C[N+](C)(C)Cc4ccc(C#N)cc4)CC3)c(F)c2)C(=O)O1.[Br-] | > 128 µg/mL | 32 µg/mL | > 128 µg/mL | > 128 µg/mL | > 1280 µg/mL | –
CC[N+](C)(C)CC(=O)N1CCN(c2ccc(N3C[C@H](CNC(C)=O)OC3=O)cc2F)CC1.[Br-] | 64 µg/mL | 32 µg/mL | > 128 µg/mL | > 128 µg/mL | > 1280 µg/mL | –
COc1cccc(CN(C)CC(=O)N2CCN(c3ccc(N4C[C@H](CNC(C)=O)OC4=O)cc3F)CC2)c1 | 16 µg/mL (≈ 30.3 µM) | 2 µg/mL (≈ 3.79 µM) | > 128 µg/mL | > 128 µg/mL | > 1280 µg/mL | –
CCCCCC[N+](C)(C)CC(=O)N1CCN(c2ccc(N3C[C@H](CNC(C)=O)OC3=O)cc2F)CC1.[Br-] | 128 µg/mL | 8 µg/mL | > 128 µg/mL | > 128 µg/mL | > 1280 µg/mL | –
CCCCC[N+](C)(C)CC(=O)N1CCN(c2ccc(N3C[C@H](CNC(C)=O)OC3=O)cc2F)CC1.[Br-] | > 128 µg/mL | 16 µg/mL | > 128 µg/mL | > 128 µg/mL | > 1280 µg/mL | –
CC(=O)NC[C@H]1CN(c2ccc(N3CCN(C(=O)CN(C)Cc4cccc(C#N)c4)CC3)c(F)c2)C(=O)O1 | 8 µg/mL (≈ 15.3 µM) | 4 µg/mL (≈ 7.65 µM) | > 128 µg/mL | > 128 µg/mL | > 1280 µg/mL | –
COc1ccc(CN(C)CC(=O)N2CCN(c3ccc(N4C[C@H](CNC(C)=O)OC4=O)cc3F)CC2)cc1 | 16 µg/mL (≈ 30.3 µM) | 2 µg/mL (≈ 3.79 µM) | > 128 µg/mL | > 128 µg/mL | > 1280 µg/mL | –
